Values of other authors as cited in patent US4666715A, “Antibiotic AM-5344-A2 substance and process for the production thereof” (Kitasato Institute, priority 1980, dated 1987).

Assays:
[1] = known antibiotics, literature
Gram-positive bacterium = settings: known antibiotics, literature
[2] = known antibiotics, literature; remark: listed apart in the source

Compound	acidity (neutral) [1]	effective to Gram-positive bacteria (Gram-positive bacterium)	fat solubility [2]
CO[C@H]1[C@@H](O)[C@@H](C)O[C@H](O[C@H]2[C@H](Oc3cccc4c(O)c5c(=O)oc6ccc(C)c7c(=O)oc(c34)c5c67)O[C@H](C)[C@H](O)[C@@H]2O)[C@@H]1O [Chartreusin]	neutral	effective	fat-soluble
Cerulomycin	neutral	effective	–
COC(=O)c1cc2cc3cc4cc(CC(=O)O)c(C(=O)/C=C(\O)c5ccccc5O)c(OC)c4c(OC)c3c(O)c2c(=O)o1 [Thermorubin A]	neutral	effective	–
Mekemycin	neutral	effective	–
